Test results published in PubChem BioAssay (NCI).
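Cultured in 96-well plates, cells were exposed to test compound for 48 hours across five concentrations. TGI marks complete inhibition of growth.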

Columns and labels:
Assay in all cases: DTP human tumour cell line panel, 48 h
786-0 renal = test system: 786-0 renal
A498 renal = test system: A498 renal
A549 NSCLC = test system: A549 NSCLC
ACHN renal = test system: ACHN renal
BT-549 breast = test system: BT-549 breast
CAKI-1 renal = test system: CAKI-1 renal
CCRF-CEM leukemia = test system: CCRF-CEM leukemia
COLO 205 colon = test system: COLO 205 colon
DU-145 prostate = test system: DU-145 prostate
EKVX NSCLC = test system: EKVX NSCLC
HCC-2998 colon = test system: HCC-2998 colon
HCT-116 colon = test system: HCT-116 colon
HCT-15 colon = test system: HCT-15 colon
HL-60(TB) leukemia = test system: HL-60(TB) leukemia
HOP-62 NSCLC = test system: HOP-62 NSCLC
HOP-92 NSCLC = test system: HOP-92 NSCLC
HS 578T breast = test system: HS 578T breast
HT29 colon = test system: HT29 colon
IGROV1 ovarian = test system: IGROV1 ovarian
K-562 leukemia = test system: K-562 leukemia
KM12 colon = test system: KM12 colon
LOX IMVI melanoma = test system: LOX IMVI melanoma
M14 melanoma = test system: M14 melanoma
MALME-3M melanoma = test system: MALME-3M melanoma
MCF7 breast = test system: MCF7 breast
MDA-MB-231 breast = test system: MDA-MB-231 breast
MDA-MB-435 = test system: MDA-MB-435
MDA-N = test system: MDA-N
MOLT-4 leukemia = test system: MOLT-4 leukemia
NCI-H226 lung = test system: NCI-H226 lung
NCI-H23 lung = test system: NCI-H23 lung
NCI-H460 lung = test system: NCI-H460 lung
NCI-H522 lung = test system: NCI-H522 lung
NCI/ADR-RES ovarian = test system: NCI/ADR-RES ovarian
OVCAR-3 ovarian = test system: OVCAR-3 ovarian
OVCAR-4 ovarian = test system: OVCAR-4 ovarian
OVCAR-5 ovarian = test system: OVCAR-5 ovarian
OVCAR-8 ovarian = test system: OVCAR-8 ovarian
PC-3 prostate = test system: PC-3 prostate
RPMI-8226 leukemia = test system: RPMI-8226 leukemia
RXF 393 renal = test system: RXF 393 renal
SF-268 CNS = test system: SF-268 CNS
SF-295 CNS = test system: SF-295 CNS
SF-539 CNS = test system: SF-539 CNS
SK-MEL-2 melanoma = test system: SK-MEL-2 melanoma
SK-MEL-28 melanoma = test system: SK-MEL-28 melanoma
SK-MEL-5 melanoma = test system: SK-MEL-5 melanoma
SK-OV-3 ovarian = test system: SK-OV-3 ovarian
SN12C renal = test system: SN12C renal
SNB-19 CNS = test system: SNB-19 CNS
SNB-75 CNS = test system: SNB-75 CNS
SR leukemia = test system: SR leukemia
SW-620 colon = test system: SW-620 colon
T-47D breast = test system: T-47D breast
TK-10 renal = test system: TK-10 renal
U251 CNS = test system: U251 CNS
UACC-257 melanoma = test system: UACC-257 melanoma
UACC-62 melanoma = test system: UACC-62 melanoma
UO-31 renal = test system: UO-31 renal

CCCCCCCCCCCCCCCCCc1cccc(OCOCCOC)c1C(=O)O
TGI (786-0 renal): 35.2 µM
TGI (A498 renal): 32.2 µM
TGI (A549 NSCLC): 42.1 µM
TGI (ACHN renal): 35.2 µM
TGI (BT-549 breast): 31.6 µM
TGI (CAKI-1 renal): 35.1 µM
TGI (CCRF-CEM leukemia): > 77.5 µM
TGI (COLO 205 colon): 39.7 µM
TGI (DU-145 prostate): 33.2 µM
TGI (EKVX NSCLC): 38.7 µM
TGI (HCC-2998 colon): 36 µM
TGI (HCT-116 colon): 39.1 µM
TGI (HCT-15 colon): 41.2 µM
TGI (HL-60(TB) leukemia): 50.8 µM
TGI (HOP-62 NSCLC): 38.9 µM
TGI (HOP-92 NSCLC): 35.8 µM
TGI (HS 578T breast): 42.6 µM
TGI (HT29 colon): 35.7 µM
TGI (IGROV1 ovarian): 33.5 µM
TGI (K-562 leukemia): > 83 µM
TGI (KM12 colon): 34.1 µM
TGI (LOX IMVI melanoma): 61.8 µM
TGI (M14 melanoma): 35.9 µM
TGI (MALME-3M melanoma): 22.2 µM
TGI (MCF7 breast): 43.2 µM
TGI (MDA-MB-231 breast): 37.4 µM
TGI (MDA-MB-435): 40.9 µM
TGI (MDA-N): 38.8 µM
TGI (MOLT-4 leukemia): 44.1 µM
TGI (NCI-H226 lung): 32.3 µM
TGI (NCI-H23 lung): 30.1 µM
TGI (NCI-H460 lung): 41 µM
TGI (NCI-H522 lung): 30 µM
TGI (NCI/ADR-RES ovarian): 28.6 µM
TGI (OVCAR-3 ovarian): 36.9 µM
TGI (OVCAR-4 ovarian): 34.8 µM
TGI (OVCAR-5 ovarian): 35 µM
TGI (OVCAR-8 ovarian): 31.7 µM
TGI (PC-3 prostate): 34.4 µM
TGI (RPMI-8226 leukemia): > 72.7 µM
TGI (RXF 393 renal): 37.7 µM
TGI (SF-268 CNS): 34.5 µM
TGI (SF-295 CNS): 35.5 µM
TGI (SF-539 CNS): 30.1 µM
TGI (SK-MEL-2 melanoma): 39.2 µM
TGI (SK-MEL-28 melanoma): 38.2 µM
TGI (SK-MEL-5 melanoma): 39.1 µM
TGI (SK-OV-3 ovarian): 28 µM
TGI (SN12C renal): 46.6 µM
TGI (SNB-19 CNS): 40.6 µM
TGI (SNB-75 CNS): 31.1 µM
TGI (SR leukemia): 50 µM
TGI (SW-620 colon): 44.3 µM
TGI (T-47D breast): 35.2 µM
TGI (TK-10 renal): 34.3 µM
TGI (U251 CNS): 41.6 µM
TGI (UACC-257 melanoma): 36.6 µM
TGI (UACC-62 melanoma): 32.4 µM
TGI (UO-31 renal): 31.7 µM

O=C1NC(=O)C(F)(n2cc(F)c(=O)[nH]c2=O)C(O)N1 (centres undefined)
TGI (786-0 renal): > 10 µM
TGI (A498 renal): > 10 µM
TGI (A549 NSCLC): > 10 µM
TGI (ACHN renal): > 10 µM
TGI (BT-549 breast): > 10 µM
TGI (CAKI-1 renal): > 10 µM
TGI (CCRF-CEM leukemia): > 10 µM
TGI (COLO 205 colon): > 10 µM
TGI (DU-145 prostate): > 10 µM
TGI (EKVX NSCLC): > 10 µM
TGI (HCC-2998 colon): > 10 µM
TGI (HCT-116 colon): > 10 µM
TGI (HCT-15 colon): > 10 µM
TGI (HL-60(TB) leukemia): > 10 µM
TGI (HOP-62 NSCLC): > 10 µM
TGI (HOP-92 NSCLC): > 10 µM
TGI (HS 578T breast): > 10 µM
TGI (HT29 colon): > 10 µM
TGI (IGROV1 ovarian): > 10 µM
TGI (K-562 leukemia): > 10 µM
TGI (KM12 colon): > 10 µM
TGI (LOX IMVI melanoma): > 10 µM
TGI (M14 melanoma): > 10 µM
TGI (MALME-3M melanoma): > 10 µM
TGI (MCF7 breast): > 10 µM
TGI (MDA-MB-231 breast): > 10 µM
TGI (MDA-MB-435): > 10 µM
TGI (MDA-N): > 10 µM
TGI (MOLT-4 leukemia): > 10 µM
TGI (NCI-H226 lung): > 10 µM
TGI (NCI-H23 lung): > 10 µM
TGI (NCI-H460 lung): > 10 µM
TGI (NCI-H522 lung): > 10 µM
TGI (NCI/ADR-RES ovarian): > 10 µM
TGI (OVCAR-3 ovarian): > 10 µM
TGI (OVCAR-4 ovarian): > 10 µM
TGI (OVCAR-5 ovarian): > 10 µM
TGI (OVCAR-8 ovarian): > 10 µM
TGI (PC-3 prostate): > 10 µM
TGI (RPMI-8226 leukemia): > 10 µM
TGI (RXF 393 renal): > 10 µM
TGI (SF-268 CNS): > 10 µM
TGI (SF-295 CNS): > 10 µM
TGI (SF-539 CNS): > 10 µM
TGI (SK-MEL-2 melanoma): > 10 µM
TGI (SK-MEL-28 melanoma): > 10 µM
TGI (SK-MEL-5 melanoma): > 10 µM
TGI (SK-OV-3 ovarian): > 10 µM
TGI (SN12C renal): > 10 µM
TGI (SNB-19 CNS): > 10 µM
TGI (SNB-75 CNS): > 10 µM
TGI (SR leukemia): > 10 µM
TGI (SW-620 colon): > 10 µM
TGI (T-47D breast): > 10 µM
TGI (TK-10 renal): > 10 µM
TGI (U251 CNS): > 10 µM
TGI (UACC-257 melanoma): > 10 µM
TGI (UACC-62 melanoma): > 10 µM
TGI (UO-31 renal): > 10 µM

O=C(CC(=O)N1N=C(N2CCCCC2)CC1c1ccccc1)Nc1ccccc1 (centres undefined)
TGI (786-0 renal): > 100 µM
TGI (A498 renal): > 100 µM
TGI (A549 NSCLC): > 100 µM
TGI (ACHN renal): > 100 µM
TGI (BT-549 breast): > 100 µM
TGI (CAKI-1 renal): > 100 µM
TGI (CCRF-CEM leukemia): > 100 µM
TGI (COLO 205 colon): > 100 µM
TGI (DU-145 prostate): > 100 µM
TGI (EKVX NSCLC): > 100 µM
TGI (HCC-2998 colon): > 100 µM
TGI (HCT-116 colon): > 100 µM
TGI (HCT-15 colon): > 100 µM
TGI (HL-60(TB) leukemia): > 100 µM
TGI (HOP-62 NSCLC): > 100 µM
TGI (HOP-92 NSCLC): > 100 µM
TGI (HS 578T breast): > 100 µM
TGI (HT29 colon): > 100 µM
TGI (IGROV1 ovarian): > 100 µM
TGI (KM12 colon): > 100 µM
TGI (LOX IMVI melanoma): > 100 µM
TGI (M14 melanoma): > 100 µM
TGI (MALME-3M melanoma): > 100 µM
TGI (MCF7 breast): > 100 µM
TGI (MDA-MB-231 breast): > 100 µM
TGI (MDA-MB-435): > 100 µM
TGI (MDA-N): > 100 µM
TGI (MOLT-4 leukemia): > 100 µM
TGI (NCI-H226 lung): > 100 µM
TGI (NCI-H23 lung): > 100 µM
TGI (NCI-H460 lung): > 100 µM
TGI (NCI-H522 lung): > 100 µM
TGI (NCI/ADR-RES ovarian): > 100 µM
TGI (OVCAR-3 ovarian): > 100 µM
TGI (OVCAR-4 ovarian): > 100 µM
TGI (OVCAR-5 ovarian): > 100 µM
TGI (OVCAR-8 ovarian): > 100 µM
TGI (PC-3 prostate): > 100 µM
TGI (RXF 393 renal): > 100 µM
TGI (SF-268 CNS): > 100 µM
TGI (SF-295 CNS): > 100 µM
TGI (SF-539 CNS): > 100 µM
TGI (SK-MEL-2 melanoma): > 100 µM
TGI (SK-MEL-28 melanoma): > 100 µM
TGI (SK-MEL-5 melanoma): > 100 µM
TGI (SN12C renal): > 100 µM
TGI (SNB-19 CNS): > 100 µM
TGI (SNB-75 CNS): > 100 µM
TGI (SR leukemia): > 100 µM
TGI (SW-620 colon): > 100 µM
TGI (T-47D breast): > 100 µM
TGI (TK-10 renal): > 100 µM
TGI (U251 CNS): > 100 µM
TGI (UACC-257 melanoma): > 100 µM
TGI (UACC-62 melanoma): > 100 µM
TGI (UO-31 renal): > 100 µM
